Experimental data as given in patent US12617771B2, “Diphenylpyrazole compound, and preparation method therefor and application thereof” (NORTHWEST A&F UNIVERSITY, priority 2021, dated 2026).
Counter-ions that a name gives are not always drawn.

What was measured:
[1] = tested on: resistant strains of Plutella xylostella; test: Insecticidal synergistic activity with chlorantraniliprole, leaf dip, resistant strains (Yunnan); format: in vivo; conditions: for Resistance ratio to chlorantraniliprole: chlorantraniliprole alone or with 200 mg/L synergist, 48 hours; for LC50 of chlorantraniliprole solution: in vivo
Experimental: (§1) Experiment: 96% chlorantraniliprole (Chl) original drug was prepared into mother liquor with a concentration of 50000 mg/L. During the test, 6 treatment solutions with concentrations of 500, 250, 125, 62.5, 31.25 and 15.63 mg/L were prepared. 200 mg/L of the compound PXG22 of the present invention was added to each treatment solution, 200 mg/L of diethyl maleate (DEM) was used as the control synergist, and water was used as another control. The Plutella xylostella (Linnaeus) larvae was collected from a vegetable field in Yunnan Province. Healthy 3rd instar larvae of the same age were selected for indoor biological activity assay.
(§2) Clean wild cabbage leaves were cut into discs with a diameter of 6.5 cm (avoiding main veins). The leaves were soaked in the pesticide solution for 10 seconds, then taken out, dried at 25° C., and placed in a petri dish with a diameter of 6.5 cm. 10 larvae of the resistant strains of Plutella xylostella at the early stage of 3rd instar were placed in each petri dish, which was covered with double-layer absorbent roll paper, and covered by the upper cover of the petri dish. It was placed face up in an incubator at a temperature of 25±1° C., a relative humidity of 65%-70%, and a light ratio (L:D) of 16: 8 h. Each treatment was replicated 4 times with 10 larvae per replicate. […] The test process is strictly in accordance with the standard: NY/T 1154.7-2006.
(§3) Experimental data analysis was carried out using practical statistical analysis and its computer processing platform (DPS) (TANG Qiyi et al., 1997). The toxicity regression equation of each agent was established, LC50 value and 95% confidence limit were calculated.

[2] = tested on: high resistant strains II of Plutella xylostella (Lianzhou insect source); test: Insecticidal synergistic activity with chlorantraniliprole, high resistant strains II (Lianzhou insect source); format: in vivo; conditions: for Resistance ratio to chlorantraniliprole: high resistant strains II (Lianzhou)
Experimental: as §1, §2, §3
(§4) Experiment: The method was the same as in Experimental example 4, and the tested Plutella xylostella was the high resistant strains II against chlorantraniliprole (Lianzhou source). The added concentrations of the compound PXG22 of the present invention were 200 mg/L, 100 mg/L, 50 mg/L and 25 mg/L, and the added concentration of diethyl maleate (DEM) of the control synergist was maintained at 200 mg/L.

[3] = tested on: high resistant strains I of Plutella xylostella (Lianzhou insect source); test: Insecticidal synergistic activity with chlorantraniliprole, high resistant strains I (Lianzhou insect source); format: in vivo; conditions: for Resistance ratio to chlorantraniliprole: high resistant strains I (Lianzhou)
Experimental: as §1, §2, §3
as §4, with “I” for “II”, “100” for “100 mg/L, 50”, “50” for “25”

[4] = tested on: ultra-high resistant strains of Plutella xylostella (Huizhou insect source); test: Insecticidal synergistic activity with chlorantraniliprole, ultra-high resistant strains (Huizhou insect source); format: in vivo; conditions: for Resistance ratio to chlorantraniliprole: chlorantraniliprole alone or with 200 mg/L synergist, ultra-high resistant strains (Huizhou); for LC50 of chlorantraniliprole solution: in vivo
Experimental: as §1, §2, §3
Experiment: The method was the same as in Experimental Example 4. The tested Plutella xylostella was ultra-high resistance strains to chlorantraniliprole (Huizhou insect source). The compound PXG22 of the present invention was added at a concentration of 200 mg/L. The control synergist diethyl maleate (DEM) was added at a concentration of 200 mg/L.

[5] = molecular target: PxGSTσ1 (Plutella xylostella, UniProt Q6F436); test: Inhibition of PxGSTσ1 recombinant protein; format: biochemical; conditions: read-out: 100 μM Inhibition rate %
Chain of PxGSTσ1 (Q6F436 entry or part of it): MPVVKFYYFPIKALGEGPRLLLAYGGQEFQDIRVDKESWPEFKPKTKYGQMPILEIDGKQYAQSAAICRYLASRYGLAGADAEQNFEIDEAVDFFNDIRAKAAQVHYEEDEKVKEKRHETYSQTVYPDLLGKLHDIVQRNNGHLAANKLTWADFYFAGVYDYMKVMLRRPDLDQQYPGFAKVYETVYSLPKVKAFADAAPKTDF
In short: (§5)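 Recombinant Plutella xylostella GSTs (1 μg) preincubated with compound in 100 mM PBS pH 7.2, 10 min, 30 °C; 1 mM CDNB and 1 mM GSH in PBS then added. A340 read every 1 min for 5 min; inhibition from A340 change vs control, IC50 by curve fit, triplicate.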

[6] = molecular target: PxGSTε3 (Plutella xylostella, UniProt O77409); test: Inhibition of PxGSTε3 recombinant protein; format: biochemical; conditions: read-out: 100 μM Inhibition rate %
Chain of PxGSTε3 (O77409 entry or part of it): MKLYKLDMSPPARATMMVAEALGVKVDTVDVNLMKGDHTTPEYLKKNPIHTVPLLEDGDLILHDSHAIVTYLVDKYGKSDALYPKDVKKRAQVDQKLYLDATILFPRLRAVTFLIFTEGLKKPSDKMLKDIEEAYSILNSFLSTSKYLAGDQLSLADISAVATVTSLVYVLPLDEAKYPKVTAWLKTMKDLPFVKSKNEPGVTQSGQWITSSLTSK
In short: as §5

[7] = molecular target: PxGSTδ1 (Plutella xylostella, UniProt D7URW9); test: Inhibition of PxGSTδ1 recombinant protein; format: biochemical; conditions: read-out: 100 μM Inhibition rate %
Chain of PxGSTδ1 (D7URW9 entry or part of it): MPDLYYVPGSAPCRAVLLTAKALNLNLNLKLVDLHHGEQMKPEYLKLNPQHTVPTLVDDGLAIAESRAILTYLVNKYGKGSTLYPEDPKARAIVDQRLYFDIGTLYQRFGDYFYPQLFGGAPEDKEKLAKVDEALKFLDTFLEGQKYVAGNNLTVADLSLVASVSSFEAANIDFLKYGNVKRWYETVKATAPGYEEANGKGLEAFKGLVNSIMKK
In short: as §5

[8] = tested on: resistant strains of Plutella xylostella; test: Insecticidal synergistic activity with indoxacarb, leaf dip, resistant strains (Huizhou); format: in vivo; conditions: for Resistance ratio to indoxacarb: 48 hours
Experimental: as §1, with “Experiment: 95% indoxacarb (Ind)” for “Experiment: 96% chlorantraniliprole (Chl)”, “the compounds PXG1, PXG2 and” for “the compound”, “invention were” for “invention was”, “in Huizhou city, Guangdong” for “in Yunnan”
as §2, §3

[9] = molecular target: PxGSTσ2 (Plutella xylostella, UniProt Q6F443); test: Inhibition of PxGSTσ2 recombinant protein; format: biochemical; conditions: read-out: 100 μM Inhibition rate %
Chain of PxGSTσ2 (Q6F443 entry or part of it): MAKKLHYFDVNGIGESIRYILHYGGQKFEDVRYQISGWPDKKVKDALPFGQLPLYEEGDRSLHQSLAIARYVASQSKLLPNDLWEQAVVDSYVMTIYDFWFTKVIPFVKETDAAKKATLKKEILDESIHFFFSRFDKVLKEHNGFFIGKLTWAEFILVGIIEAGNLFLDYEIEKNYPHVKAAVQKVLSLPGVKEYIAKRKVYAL
In short: as §5

[10] = molecular target: Spodoptera litura GSTs; test: Inhibition of total GSTs enzyme of Spodoptera litura (CDNB method); format: biochemical
Experimental: (§6) Experiment: About 50 mg of larvae/nymphs of nine major pests such as Plutella xylostella, Mythimna separata, Pyrausta nubilalis, Chilo suppressalis, Nilaparvata lugens, Spodoptera frugiperda, Helicoverpa armigera, Carposina sasakii, Spodoptera litura were taken, grounded in a mortar pre-cooled at −80° C., and then 1 mL of 100 mM sodium phosphate buffer (1 mM EDTA, pH 7.2) was added and fully homogenized. The homogenate was transferred to a 1.5 mL centrifuge tube at 4° C., and centrifuged at 14,000 g for 30 minutes, and the supernatant was transferred to a new centrifuge tube as the GSTs total enzyme. The protein concentrations of the above total enzymes were determined using the BCA method.
(§7) 100 μL of PBS buffer (100 mM, pH 7.2) containing 1 mM GSH was taken and placed in a 96-well plate, 5 μg of insect total GSTs enzymes and an appropriate concentration of compounds PXG1-PXG29 (29 compounds) of the present invention were added to each well, after uniformly mixing, and allowed to stand at 30° C. for 10 min. Then 100 μL of PBS buffer (100 mM, pH 7.2) containing 1 mM CDNB was added to each well. Immediately after mixing, the mixture was placed in a microplate reader to measure the absorbance at a wavelength of 340 nm (A 340) once every 1 min, the measurement was carried out continuously for 5 min, the light absorption values of each measuring point were recorded and the inhibition rate in vitro of the compounds with different concentrations against insects total GSTs enzymes were calculated. Each group of assays was repeated three times, and total GSTs enzymes inactivated at 100° C. for 5 min were used as negative controls, and GTX was used as positive controls. GraphPad Prism 5 software was used for analysis and calculation of IC50. Relative inhibition was calculated using the following formula:
(§8) [formula] • wherein, A340 is the change of A340 within 5 minutes for the control group, and A340t is the change of A340 within 5 minutes for the experimental group.

[11] = molecular target: Chilo suppressalis GSTs; test: Inhibition of total GSTs enzyme of Chilo suppressalis (CDNB method); format: biochemical
Experimental: as §6, §7, §8

[12] = molecular target: Helicoverpa armigera GSTs; test: Inhibition of total GSTs enzyme of Helicoverpa armigera (CDNB method); format: biochemical
Experimental: as §6, §7, §8

[13] = molecular target: Plutella xylostella GSTs; test: Inhibition of total GSTs enzyme of Plutella xylostella (CDNB method); format: biochemical
Experimental: as §6, §7, §8

[14] = tested on: Nilaparvata lugens GSTs; test: Inhibition of total GSTs enzyme of Nilaparvata lugens (CDNB method); format: biochemical; conditions: 100 μM
Experimental: as §6, §7, §8

[15] = tested on: Spodoptera frugiperda GSTs; test: Inhibition of total GSTs enzyme of Spodoptera frugiperda (CDNB method); format: biochemical; conditions: 100 μM
Experimental: as §6, §7, §8

[16] = molecular target: Pyrausta nubilalis GSTs; test: Inhibition of total GSTs enzyme of Pyrausta nubilalis (CDNB method); format: biochemical
Experimental: as §6, §7, §8

[17] = molecular target: Carposina sasakii GSTs; test: Inhibition of total GSTs enzyme of Carposina sasakii (CDNB method); format: biochemical
Experimental: as §6, §7, §8

[18] = tested on: Mythimna separata GSTs; test: Inhibition of total GSTs enzyme of Mythimna separata (CDNB method); format: biochemical; conditions: 100 μM
Experimental: as §6, §7, §8

[19] = Plutella xylostella, read-out: LC50 of chlorantraniliprole solution
[20] = chlorantraniliprole alone or with 200 mg/L synergist
[21] = indoxacarb alone or with 200 mg/L synergist

Row | Compound | Resistance ratio to chlorantraniliprole [1] | Resistance ratio to chlorantraniliprole [2, 20] | Resistance ratio to chlorantraniliprole [3, 20] | Resistance ratio to chlorantraniliprole [4] | inhibition at 100 µM [5] [%] | inhibition at 100 µM [6] [%] | inhibition at 100 µM [7] [%] | LC50 of indoxacarb ([8]; in vivo) [µg/mL] | Resistance ratio to indoxacarb [8, 21] | inhibition at 100 µM [9] [%] | LC50 of chlorantraniliprole solution [1] [µg/mL] | LC50 of chlorantraniliprole solution [4] [µg/mL] | also measured
1 | CNC(=O)c1cc(Cl)cc(C)c1NC(=O)c1cc(Br)nn1-c1ncccc1Cl [Chl, Chlorantraniliprole, reference compound] | 479 | 631.26 | 583.74 | 2188.61 | – | – | – | – | – | – | – | – | LC50 ([1]; Plutella xylostella, foliar, 48 h, read-out: LC50 of chlorantraniliprole solution): 110 µg/mL; LC50 [2, 19]: 145 µg/mL; LC50 [3, 19]: 134 µg/mL; LC50 [4, 19]: 503 µg/mL
2 | Cc1csc(CC(=O)NNC(=O)c2cc(-c3ccccc3)nn2-c2ccccc2)n1 [PXG2, N′-[2-(4-methyl-1,3-thiazol-2-yl)acetyl]-1,3-diphenyl-1H-pyrazol-5-yl-carbohydrazide] | – | – | – | – | 25.1 | -4 | 87.8 | 39.93 | 76.78 | 14.6 | – | – | –
3 | COC(=O)N(C(=O)N1CO[C@@]2(C(=O)OC)Cc3cc(Cl)ccc3C2=N1)c1ccc(OC(F)(F)F)cc1 [Ind, Indoxacarb, reference compound] | – | – | – | – | – | – | – | – | 143.70 | – | – | – | LC50 of indoxacarb ([8]; indoxacarb alone or with 200 mg/L synergist, 3rd instar larvae, mortality after 48 hours): 74.72 µg/mL
4 | CCOC(=O)/C=C\C(=O)OCC [DEM, diethyl maleate, reference compound] | 217.48 | 469.52 | 232 | 1925.26 | – | – | – | 54.11 | 104.06 | – | 50.02 | 442.81 | LC50 of chlorantraniliprole solution ([2]; in vivo): 107.99 µg/mL; LC50 of chlorantraniliprole solution ([3]; in vivo): 53.36 µg/mL
5 | O=C(NNC(=O)c1cc(-c2ccccc2)nn1-c1ccccc1)c1cc[nH]c(=O)c1 [PXG1, N′-(1,3-diphenyl-1H-pyrazol-5-yl-carbonyl)-2-oxo-1,2-dihydropyridinyl-4-carbohydrazide] | – | – | – | – | 25.5 | 17.6 | 68.9 | 59.13 | 113.71 | 58.1 | – | – | IC50 [10]: 17.7 µM; 100 μM Inhibition rate % ([10]; 100 μM): 80.06%; IC50 [11]: 8.24 µM; 100 μM Inhibition rate % ([11]; 100 μM): 92.32%; IC50 [12]: 52.8 µM; 100 μM Inhibition rate % ([12]; 100 μM): 77.22%; IC50 [13]: 27.6 µM; 100 μM Inhibition rate % ([13]; 100 μM): 70.90%; 100 μM Inhibition rate % [14]: 100.60%; 100 μM Inhibition rate % [15]: 58.40%; IC50 [16]: 12.1 µM; 100 μM Inhibition rate % ([16]; 100 μM): 87.80%; IC50 [17]: 52.6 µM; 100 μM Inhibition rate % ([17]; 100 μM): 71.91%; 100 μM Inhibition rate % [18]: 95.19%
6 | O=C(NNC(=O)c1cc(-c2ccccc2)nn1-c1ccccc1)c1cc(=O)[nH]c2ccccc12 [PXG22, N′-(1,3-diphenyl-1H-pyrazol-5-yl-carbonyl)-2-oxo-1,2-dihydroquinoline-4-yl-carbohydrazide] | 61.04 | 243.13 | 175.82 | 645.43 | 45.7 | 65.8 | 78.8 | 51.21 | 98.48 | 76.7 | 14.04 | 148.45 | Resistance ratio to chlorantraniliprole ([2]; 25 mg/L PXG22 added): 341.48; Resistance ratio to chlorantraniliprole ([2]; 50 mg/L PXG22 added): 312.52; Resistance ratio to chlorantraniliprole ([2]; 100 mg/L PXG22 added): 195.04; Resistance ratio to chlorantraniliprole ([3]; 50 mg/L PXG22 added): 216.91; Resistance ratio to chlorantraniliprole ([3]; 100 mg/L PXG22 added): 92
